In patent US20080292736A1, “Bioavailability enhancing activity of carum carvi extracts and fractions thereof” (COUNCIL OF SCIENTIFIC AND INDUSTRIAL RESEARCH, priority 2001, published 2008):
Where two headings read alike, the source gives them in different places.

Columns and labels:
[1] = rat, in vivo; for % Enhancement in bioavailability, BE from Zingiber officinale: 35 mg/kg; for % Enhancement in bioavailability, Carum carvi (Cc) Extr.: 30 mg/kg
[2] = Enhancement of bioavailability of drugs given to rats with bioenhancers (plasma drug level by HPLC); conditions: for % Enhancement in bioavailability, BE from Carum carvi: drug with Carum carvi bioenhancer (aqueous or 50% alcoholic extract 30 mg/kg or Fraction No. 1 15 mg/kg), drug dose mg/kg
[3] = drug with piperine; background statement; cited from earlier work

Compound	% Enhancement in bioavailability, Carum carvi + Piperine [1]	% Enhancement in bioavailability, Carum carvi + Zingiber officinale [1]	% Enhancement in bioavailability, BE from Zingiber officinale [1]	% Enhancement in bioavailability, BE from Carum carvi [1]	% Enhancement in bioavailability, Carum carvi + Zingiber officinale, Extr. (Cc) [1]	% Enhancement in bioavailability, Carum carvi + Zingiber officinale, Frac 1. (Cc) [1]	% Enhancement in bioavailability, Carum carvi + piperine, Extr. (Cc) [1]	% Enhancement in bioavailability, Carum carvi + piperine, Frac 1. (Cc) [1]	% Enhancement in bioavailability, Carum carvi (Cc) Extr. [1]	further results
Cc1onc(-c2ccccc2Cl)c1C(=O)N[C@@H]1C(=O)N2[C@@H]1SC(C)(C)[C@@H]2C(=O)O [Cloxacillin]	95%	110%	76%	110%	–	–	–	–	–	–
COc1cc(/C=C/C(=O)CC(=O)/C=C/c2ccc(O)c(OC)c2)ccc1O [Curcumin]	–	–	49%	–	43%	52%	42%	51%	40%	–
N[C@@H]1CON=C1O [Cycloserine]	80%	75%	71%	70%	–	–	–	–	–	–
NNC(=O)c1ccncc1 [Isoniazid]	nil	nil	Nil	Nil	–	–	–	–	–	bioenhancing effect of piperine on the drug [3]: nil or marginal
CC(C)C[C@H](N)C(=O)O [Leucine]	–	–	24%	–	35%	40%	29%	32%	19%	–
NCCCC[C@H](N)C(=O)O [Lysine]	–	–	19%	–	39%	43%	33%	38%	26%	–
CCn1cc(C(=O)O)c(=O)c2cc(F)c(N3CCNCC3)cc21 [Norfloxacin]	65%	60%	Nil	55%	–	–	–	–	–	–
CO[C@H]1/C=C/O[C@@]2(C)Oc3c(C)c(O)c4c(O)c(c(/C=N/N5CCN(C)CC5)c(O)c4c3C2=O)NC(=O)/C(C)=C\C=C\[C@H](C)[C@H](O)[C@@H](C)[C@@H](O)[C@@H](C)[C@H](OC(C)=O)[C@@H]1C [Rifampicin]	–	–	–	–	–	–	–	–	–	bioenhancing effect of piperine on the drug [3]: highly significant; % Enhancement in bioavailability, BE from Carum carvi [2]: 110%; % Enhancement in bioavailability, Carum carvi + Zingiber officinale ([2]; drug with Carum carvi bioenhancer and Zingiber officinale 35 mg/kg, drug dose as in row): 140%; % Enhancement in bioavailability, Carum carvi + Piperine ([2]; drug with Carum carvi bioenhancer and piperine 8 mg/kg, drug dose as in row): 170%; % Enhancement in bioavailability, BE from Zingiber officinale ([2]; drug with Zingiber officinale 50% alcoholic extract of fresh ginger 35 mg/kg, drug dose as in row): 65%; % Enhancement in bioavailability, Piperine as BE ([2]; drug with piperine 8 mg/kg, drug dose as in row): 45%
C[C@@H]1O[C@@H](OC[C@H]2O[C@@H](Oc3c(-c4ccc(O)c(O)c4)oc4cc(O)cc(O)c4c3=O)[C@H](O)[C@@H](O)[C@@H]2O)[C@H](O)[C@H](O)[C@H]1O [Rutin]	–	–	42%	–	34%	42%	36%	40%	34%	–
[Se] [Selenium]	–	–	Nil	–	nil	nil	Nil	nil	Nil	–
CC(C)[C@H](N)C(=O)O [Valine]	–	–	21%	–	32%	38%	22%	29%	16%	–
O=C1O[C@H]([C@@H](O)CO)C(O)=C1O [Vit C]	–	–	Nil	–	Nil	Nil	Nil	Nil	Nil	–
CCCNC(=O)NS(=O)(=O)c1ccc(Cl)cc1 [chlorpropamide]	–	–	–	–	–	–	–	–	–	bioenhancing effect of piperine on the drug [3]: does not enhance

Now from value to compound, other results behind:

% Enhancement in bioavailability, Carum carvi + Piperine [1]	% Enhancement in bioavailability, Carum carvi + Zingiber officinale [1]	% Enhancement in bioavailability, BE from Zingiber officinale [1]	% Enhancement in bioavailability, BE from Carum carvi [1]	% Enhancement in bioavailability, Carum carvi + Zingiber officinale, Extr. (Cc) [1]	% Enhancement in bioavailability, Carum carvi + Zingiber officinale, Frac 1. (Cc) [1]	% Enhancement in bioavailability, Carum carvi + piperine, Extr. (Cc) [1]	% Enhancement in bioavailability, Carum carvi + piperine, Frac 1. (Cc) [1]	% Enhancement in bioavailability, Carum carvi (Cc) Extr. [1]	Compound	further results
50%	65%	68%	–	–	–	–	–	–	CCOC(=O)C1=C(COCCN)NC(C)=C(C(=O)OC)C1c1ccccc1Cl (stereo not drawn) [Amlodipine]	% Enhancement in bioavailability, BE from Carum carvi [2]: Nil
–	–	nil	–	Nil	Nil	nil	Nil	nil	[Cu] [Copper]	–
100%	95%	90%	Nil	–	–	–	–	–	O=C(O)Cc1ccccc1Nc1c(Cl)cccc1Cl [Diclofenac]	–
100%	105%	68%	70%	–	–	–	–	–	CC[C@H]1OC(=O)[C@H](C)[C@@H](O[C@H]2C[C@@](C)(OC)[C@@H](O)[C@H](C)O2)[C@H](C)[C@@H](O[C@@H]2O[C@H](C)C[C@H](N(C)C)[C@H]2O)[C@](C)(O)C[C@@H](C)C(=O)[C@H](C)[C@@H](O)[C@]1(C)O [Erythromycin]	–
nil	nil	Nil	Nil	–	–	–	–	–	CC[C@@H](CO)NCCN[C@@H](CC)CO [Ethambutol]	–
–	–	nil	–	nil	nil	nil	nil	Nil	Nc1nc2ncc(CNc3ccc(C(=O)N[C@@H](CCC(=O)O)C(=O)O)cc3)nc2c(=O)[nH]1 [Folio Acid]	–
–	–	15%	–	42%	50%	37%	44%	28%	CC[C@H](C)[C@H](N)C(=O)O [Isoleucine]	–
70%	75%	nil	76%	–	–	–	–	–	COc1ccc2[nH]c([S+]([O-])Cc3ncc(C)c(OC)c3C)nc2c1 (stereo not drawn) [Omeprazole]	–
98%	76%	86%	Nil	–	–	–	–	–	CN1C(C(=O)Nc2ccccn2)=C(O)c2ccccc2S1(=O)=O [Piroxicam]	–
70%	150%	147%	67%	–	–	–	–	–	CNC(=C[N+](=O)[O-])NCCSCc1ccc(CN(C)C)o1 [Ranitidine]	–
95%	98%	72%	65%	–	–	–	–	–	CC[C@H]1OC(=O)[C@H](C)[C@@H](O[C@H]2C[C@@](C)(OC)[C@@H](O)[C@H](C)O2)[C@H](C)[C@@H](O[C@@H]2O[C@H](C)C[C@H](N(C)C)[C@H]2O)[C@](C)(O)C[C@@H](C)/C(=N\OCOCCOC)[C@H](C)[C@@H](O)[C@]1(C)O [Roxythromycin]	–
95%	114%	75%	90%	–	–	–	–	–	C=CC[C@@H]1/C=C(\C)C[C@H](C)C[C@H](OC)[C@H]2O[C@@](O)(C(=O)C(=O)N3CCCC[C@H]3C(=O)O[C@H](/C(C)=C/[C@@H]3CC[C@@H](O)[C@H](OC)C3)[C@H](C)[C@@H](O)CC1=O)[C@H](C)C[C@@H]2OC [Tacrolimus]	–
–	–	33%	–	38%	41%	36%	45%	31%	Silymarin	–
–	–	Nil	–	20%	27%	13%	16%	17%	Vitamin A	–
